pEC50, pIC50: −log10 of the molar value.
Assays:
Melanocortin receptor 4 [1] = biological target: T1, Melanocortin receptor 4 (Homo sapiens, UniProt P32245); assay: Binding affinity to human MC4R
Melanocortin receptor 4 [2] = biological target: T1, Melanocortin receptor 4; assay: […] at human MC4R assessed as stimulation of cAMP production; format: functional; design: concentration or dose not given beside the values
Melanocortin receptor 3 = Melanocortin receptor 3 (Homo sapiens, UniProt P41968); assay: […] at human MC3R assessed as stimulation of cAMP production; format: functional; design: concentration or dose not given beside the values
Chain of Melanocortin receptor 3 (P41968 whole entry): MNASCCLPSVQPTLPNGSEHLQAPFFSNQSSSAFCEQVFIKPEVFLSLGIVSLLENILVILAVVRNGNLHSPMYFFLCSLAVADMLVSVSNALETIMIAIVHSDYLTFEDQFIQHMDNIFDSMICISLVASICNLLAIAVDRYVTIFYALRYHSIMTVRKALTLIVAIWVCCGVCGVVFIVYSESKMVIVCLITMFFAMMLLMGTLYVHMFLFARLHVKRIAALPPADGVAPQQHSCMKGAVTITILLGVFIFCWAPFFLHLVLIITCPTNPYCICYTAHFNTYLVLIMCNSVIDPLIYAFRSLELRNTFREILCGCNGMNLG

Melanocortin receptor 5 = Melanocortin receptor 5 (Homo sapiens, UniProt P33032); assay: […] at human MC5R assessed as stimulation of cAMP production; format: functional; design: concentration or dose not given beside the values
Chain of Melanocortin receptor 5 (P33032 whole entry): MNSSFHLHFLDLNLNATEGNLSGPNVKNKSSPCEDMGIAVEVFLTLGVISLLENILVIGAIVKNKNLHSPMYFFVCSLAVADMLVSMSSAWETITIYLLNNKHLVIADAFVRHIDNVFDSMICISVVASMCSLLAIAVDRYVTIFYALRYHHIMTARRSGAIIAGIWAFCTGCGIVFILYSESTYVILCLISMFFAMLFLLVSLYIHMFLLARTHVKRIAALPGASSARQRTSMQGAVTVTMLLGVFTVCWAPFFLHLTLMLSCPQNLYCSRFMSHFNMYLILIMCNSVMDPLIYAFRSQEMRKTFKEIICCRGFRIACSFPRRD

Homo sapiens [3] = species on record: Homo sapiens; assay: Ratio of EC50 for human MC3R to EC50 for human MC4R
Homo sapiens [4] = species on record: Homo sapiens; assay: Ratio of EC50 for human MC5R to EC50 for human MC4R

T1 sequence (P32245 whole entry): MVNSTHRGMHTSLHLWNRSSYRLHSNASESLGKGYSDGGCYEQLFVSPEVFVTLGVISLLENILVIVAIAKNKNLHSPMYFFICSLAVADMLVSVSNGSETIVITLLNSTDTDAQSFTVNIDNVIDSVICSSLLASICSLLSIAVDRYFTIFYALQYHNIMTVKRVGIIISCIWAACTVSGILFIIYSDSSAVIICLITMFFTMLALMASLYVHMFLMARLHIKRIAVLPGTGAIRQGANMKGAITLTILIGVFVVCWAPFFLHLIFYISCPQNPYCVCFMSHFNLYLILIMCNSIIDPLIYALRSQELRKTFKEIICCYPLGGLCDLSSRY

Compound	pIC50 (Melanocortin receptor 4 [1])	Activity (Melanocortin receptor 4 [2])	pEC50 (Melanocortin receptor 4 [2])	Activity (Melanocortin receptor 3)	pEC50 (Melanocortin receptor 3)	Activity (Melanocortin receptor 5)	pEC50 (Melanocortin receptor 5)	Selectivity ratio (Homo sapiens [3])	Selectivity ratio (Homo sapiens [4])
CCC1(CC#N)CCN(C(=O)[C@H](Cc2ccc(Cl)cc2)NC(=O)[C@H]2Cc3ccccc3CN2)CC1	6.12								
CN1CCN[C@@H](C(=O)N[C@@H](Cc2ccc(F)cc2)C(=O)N2CCC(C(=O)NC(C)(C)C)(C3C=CC(=O)CC3)CC2)C1 (some centres undefined)	6.46	59%	5.75						
Cn1nnnc1CC1(c2ccc(Cl)cc2)CCN(C(=O)[C@H](Cc2ccc(Cl)cc2)NC(=O)[C@H]2Cc3ccccc3CN2)CC1	6.95	100%	8.31	92%	6.36	17%	6.28		
Cn1nnnc1CC1(Cc2ccccc2)CCN(C(=O)[C@H](Cc2ccc(Cl)cc2)NC(=O)[C@H]2Cc3ccccc3CN2)CC1	7.28	70%	6.95	17%	6.08	20%	5.75		
CCC(C)(C)C1(C(=O)NC(C)(C)C)CCN(C(=O)[C@H](Cc2ccc(F)cc2)NC(=O)[C@H]2CN(C)CCN2)CC1	7.18	55%	6.82						
CN1CCN[C@@H](C(=O)N[C@@H](Cc2ccc(F)cc2)C(=O)N2CCC(C(=O)NC(C)(C)C)(C3C=CCCC3)CC2)C1 (some centres undefined)	7.19	76%	7.07						
CN1CCN[C@@H](C(=O)N[C@@H](Cc2ccc(F)cc2)C(=O)N2CCC(C(=O)NC(C)(C)C)(C3(C)CCCCC3)CC2)C1	7.44	79%	7.24			56%	5.70		
CC(C)C1(CC#N)CCN(C(=O)[C@H](Cc2ccc(Cl)cc2)NC(=O)[C@H]2Cc3ccccc3CN2)CC1	7.20	32%	6.08			20%	5.96		
CN1CCN[C@@H](C(=O)N[C@@H](Cc2ccc(F)cc2)C(=O)N2CCC(C(=O)NC(C)(C)C)(C3CCC(C)(C)CC3)CC2)C1	6.79	87%	6.26	42%	6.62	19%	5.95		
CCCCC1(CC#N)CCN(C(=O)[C@H](Cc2ccc(Cl)cc2)NC(=O)[C@H]2Cc3ccccc3CN2)CC1	7.65	40%	6.55			21%	6.32		
CN1CCN[C@@H](C(=O)N[C@@H](Cc2ccc(F)cc2)C(=O)N2CCC(C(=O)NC(C)(C)C)(C3CCCCC3)CC2)C1	7.87	98%	8.19			31%	6.01		
N#CCC1(C2CC2)CCN(C(=O)[C@H](Cc2ccc(Cl)cc2)NC(=O)[C@H]2Cc3ccccc3CN2)CC1	6.76								
CCCCCCC1(Cc2nnnn2C)CCN(C(=O)[C@H](Cc2ccc(Cl)cc2)NC(=O)[C@H]2Cc3ccccc3CN2)CC1	8.40	84%	7.54	34%	6.00	15%	6.16		
Cn1nnnc1CC1(C2CCCCC2)CCN(C(=O)[C@H](Cc2ccc(Cl)cc2)NC(=O)[C@H]2Cc3ccccc3CN2)CC1	9.07	96%	8.49	50%	6.94	57%	6.65	36	69
Cn1nnnc1CC1(CC(C)(C)C)CCN(C(=O)[C@H](Cc2ccc(Cl)cc2)NC(=O)[C@H]2Cc3ccccc3CN2)CC1	8.44	76%	7.68			27%	6.42		
CC(C)CC1(Cc2nnnn2C)CCN(C(=O)[C@H](Cc2ccc(Cl)cc2)NC(=O)[C@H]2Cc3ccccc3CN2)CC1	8.22	98%	7.90	31%	6.17	46%	6.18		
CC1CCC(C2(C(=O)NC(C)(C)C)CCN(C(=O)[C@H](Cc3ccc(F)cc3)NC(=O)[C@H]3CN(C)CCN3)CC2)CC1 (some centres undefined)	8.17	81%	8.00	37%	6.64	27%	6.05		
N#CCC1(C2CCCCC2)CCN(C(=O)[C@H](Cc2ccc(Cl)cc2)NC(=O)[C@H]2Cc3ccccc3CN2)CC1	8.17	51%	6.72			42%	6.19		3
CC1(CC#N)CCN(C(=O)[C@H](Cc2ccc(Cl)cc2)NC(=O)[C@H]2Cc3ccccc3CN2)CC1	5.83								
CN1CCN[C@@H](C(=O)N[C@@H](Cc2ccc(F)cc2)C(=O)N2CCC(CC3CC3)(C(=O)NC(C)(C)C)CC2)C1	6.08	54%	5.66						
Cn1nnnc1CC1(C2CCOCC2)CCN(C(=O)[C@H](Cc2ccc(Cl)cc2)NC(=O)[C@H]2Cc3ccccc3CN2)CC1	7.49	90%	6.80	18%	5.53	18%	5.53		
CCC(C)C1(Cc2nnnn2C)CCN(C(=O)[C@H](Cc2ccc(Cl)cc2)NC(=O)[C@H]2Cc3ccccc3CN2)CC1 (some centres undefined)	8.43	107%	8.41	33%	6.58	39%	6.60		
N#CCC1(C2CCCC2)CCN(C(=O)[C@H](Cc2ccc(Cl)cc2)NC(=O)[C@H]2Cc3ccccc3CN2)CC1	7.79	52%	6.71			40%	6.20		
CN1CCN[C@@H](C(=O)N[C@@H](Cc2ccc(F)cc2)C(=O)N2CCC(CC3CCC3)(C(=O)NC(C)(C)C)CC2)C1	6.75	55%	6.25						
